Patent US6211214A, “Biphenyl ether oxazolines and their use as pest-control agents” (Bayer Aktiengesellschaft, priority 1995, dated 2001)
Where two headings read alike, the source gives them in different places.

Test: log p (partition coefficient octanol/water, determined experimentally from reversed phase HPLC)
Assay type: physicochemical
Conditions: for chromatographic logP: reversed phase hplc
Description: [log p=logarithm of the partition coefficient p of the substance between the solvents octanol and water, determined experimentally from reversed phase HPLC]

Row | chromatographic logP | chromatographic logP (A isomer) | chromatographic logP (B isomer) | Compound | further results
1 | – | 3.48 | 3.54 | CC(=NO)C(C)Oc1ccc(-c2ccc(C3COC(c4c(F)cccc4F)=N3)cc2)cc1 (stereo not drawn) [Example 64] | –
2 | – | 4.78 | 4.72 | C=CCON=C(C)COc1ccc(-c2ccc(C3COC(c4c(F)cccc4F)=N3)cc2)cc1 (stereo not drawn) [Example 89] | –
3 | 4.16 | – | – | O=C(COc1ccc(-c2ccc(C3COC(c4c(F)cccc4F)=N3)cc2)cc1)c1ccc(OC(F)F)cc1 (stereo not drawn) [Example 114] | –
4 | – | 4.9 | 4.56 | CON=C(COc1ccc(-c2ccc(C3COC(c4c(F)cccc4F)=N3)cc2)cc1)C1CC1 (stereo not drawn) [Example 26] | –
5 | 3.35 | – | – | CCN(CC)C(=O)COc1ccc(-c2ccc(C3COC(c4c(F)cccc4F)=N3)cc2)cc1 (stereo not drawn) [Example 15] | –
6 | 4.55 | – | – | CC(C)(C(=O)COc1ccc(-c2ccc(C3COC(c4c(F)cccc4F)=N3)cc2)cc1)C(Cl)Cl (stereo not drawn) [Example 71] | –
7 | – | 5.39 | 5.19 | CCON=C(C)COc1ccc(-c2ccc(C3COC(c4c(F)cccc4F)=N3)cc2)cc1Cl (stereo not drawn) [Example 87] | –
8 | 4.45 | – | – | CC(C)C(C#N)Oc1ccc(-c2ccc(C3COC(c4c(F)cccc4F)=N3)cc2)cc1 (stereo not drawn) [Example 17] | –
9 | 4.98 | – | – | CCON=C(C)COc1ccc(-c2ccc(C3COC(c4c(F)cccc4Cl)=N3)cc2)cc1 (stereo not drawn) [Example 81] | –
10 | 4.86 | – | – | Cc1cc(C(=O)COc2ccc(-c3ccc(C4COC(c5c(F)cccc5F)=N4)cc3)cc2)ccc1Cl (stereo not drawn) [Example 117] | –
11 | 4.15 | – | – | CC(=O)C(C)Oc1ccc(-c2ccc(C3COC(c4c(F)cccc4F)=N3)cc2)cc1Cl (stereo not drawn) [Example 101] | –
12 | – | 5.09 | 4.78 | CON=C(COc1ccc(-c2ccc(C3COC(c4c(F)cccc4F)=N3)cc2)cc1)C1(Cl)CC1 (stereo not drawn) [Example 55] | –
13 | 4.48 | – | – | CC(=O)C(C)(C)Oc1ccc(-c2ccc(C3COC(c4c(F)cccc4Cl)=N3)cc2)cc1 (stereo not drawn) [Example 151] | –
14 | – | 5.72 | 5.49 | CCON=C(COc1ccc(-c2ccc(C3COC(c4c(F)cccc4F)=N3)cc2)cc1)C(C)C (stereo not drawn) [Example 78] | –
15 | 3.76 | – | – | C=CCN(CC=C)C(=O)COc1ccc(-c2ccc(C3COC(c4c(F)cccc4F)=N3)cc2)cc1 (stereo not drawn) [Example 47] | –
16 | – | 5.78 | 5.88 | CC(COc1ccc(-c2ccc(C3COC(c4c(F)cccc4Cl)=N3)cc2)cc1)=NOC(C)C (stereo not drawn) [Example 124] | –
17 | – | 5.49 | – | CCON=C(C)COc1ccc(-c2ccc(C3COC(c4c(F)cccc4F)=N3)cc2)cc1 (stereo not drawn) [Example 83] | log p (B isomer): 5.56
18 | – | 6.15 | 6.3 | CC(=NOC(C)C)C(C)Oc1ccc(-c2ccc(C3COC(c4c(F)cccc4Cl)=N3)cc2)cc1 (stereo not drawn) [Example 123] | –
19 | 4.44 | – | – | CCOC(COc1ccc(-c2ccc(C3COC(c4c(F)cccc4F)=N3)cc2)cc1)OCC (stereo not drawn) [Example 43] | –

Further lines, the compound ahead of its results:

Row | Compound | chromatographic logP | chromatographic logP (A isomer) | chromatographic logP (B isomer) | further results
20 | CC(=O)C(C)(C)Oc1ccc(-c2ccc(C3COC(c4ccccc4Cl)=N3)cc2)cc1 (stereo not drawn) [Example 152] | 4.56 | – | – | –
21 | CCON=C(C)C(C)Oc1ccc(-c2ccc(C3COC(c4ccccc4Cl)=N3)cc2)cc1 (stereo not drawn) [Example 59] | – | 5.44 | 5.56 | –
22 | CC(=NOC(C)C)C(C)Oc1ccc(-c2ccc(C3COC(c4ccccc4Cl)=N3)cc2)cc1Cl (stereo not drawn) [Example 145] | – | 6.3 | 6.44 | –
23 | CON=C(COc1ccc(-c2ccc(C3COC(c4ccccc4Cl)=N3)cc2)cc1)c1ccccc1 (stereo not drawn) [Example 52] | 5.4 | – | – | –
24 | CCCC(C#N)Oc1ccc(-c2ccc(C3COC(c4c(F)cccc4F)=N3)cc2)cc1Cl (stereo not drawn) [Example 91] | 4.87 | – | – | –
25 | CCOC(=O)C(C)Oc1ccc(-c2ccc(C3COC(c4c(F)cccc4F)=N3)cc2)cc1 (stereo not drawn) [Example 12] | – | – | – | log p: 3.80
26 | CCON=C(COc1ccc(-c2ccc(C3COC(c4c(F)cccc4F)=N3)cc2)cc1)c1ccc(Br)cc1 (stereo not drawn) [Example 119] | – | – | – | log p (A isomer): 6.03; log p (B isomer): 5.72
27 | CCON=C(C)C(C)(C)Oc1ccc(-c2ccc(C3COC(c4c(F)cccc4Cl)=N3)cc2)cc1 (stereo not drawn) [Example 161] | 5.88 | – | – | –
28 | CON=C(C)C(C)Oc1ccc(-c2ccc(C3COC(c4c(F)cccc4F)=N3)cc2)cc1Cl (stereo not drawn) [Example 127] | – | 5.06 | 5.15 | –
29 | CCON=C(COc1ccc(-c2ccc(C3COC(c4c(F)cccc4F)=N3)cc2)cc1)c1ccc(Br)cc1 (stereo not drawn) [Example 118] | – | 5.65 | 5.57 | –
30 | CON=C(COc1ccc(-c2ccc(C3COC(c4c(F)cccc4F)=N3)cc2)cc1)c1cc(Cl)ccc1Cl (stereo not drawn) [Example 191] | – | 5.62 | 5.44 | –
31 | CON=C(COc1ccc(-c2ccc(C3COC(c4c(F)cccc4F)=N3)cc2)cc1)c1ccc(C(F)F)cc1 (stereo not drawn) [Example 138] | – | 4.78 | 4.98 | –
32 | CC(=NOC(C)C)C(C)Oc1ccc(-c2ccc(C3COC(c4c(F)cccc4F)=N3)cc2)cc1Cl (stereo not drawn) [Example 146] | – | 5.87 | 6 | –
33 | CCON=C(COc1ccc(-c2ccc(C3COC(c4c(F)cccc4F)=N3)cc2)cc1)c1ccc(OC)cc1 (stereo not drawn) [Example 150] | – | 5.04 | 5.27 | –
34 | CC(COc1ccc(-c2ccc(C3COC(c4ccccc4Cl)=N3)cc2)cc1)=NOC(C)C (stereo not drawn) [Example 135] | – | 5.53 | 5.61 | –
35 | CON=C(COc1ccc(-c2ccc(C3COC(c4c(F)cccc4F)=N3)cc2)cc1)c1ccc(C)cc1 (stereo not drawn) [Example 133] | – | 5.07 | 5.35 | –
36 | C=CCON=C(C)C(C)Oc1ccc(-c2ccc(C3COC(c4c(F)cccc4F)=N3)cc2)cc1Cl (stereo not drawn) [Example 147] | – | 5.49 | 5.58 | –
37 | CCON=C(C)C(C)Oc1ccc(-c2ccc(C3COC(c4ccccc4Cl)=N3)cc2)cc1Cl (stereo not drawn) [Example 144] | – | 5.83 | 6.01 | –
38 | CCON=C(COc1ccc(-c2ccc(C3COC(c4c(F)cccc4F)=N3)cc2)cc1)c1cc(Cl)ccc1Cl (stereo not drawn) [Example 192] | – | 6 | 5.79 | –
39 | CC(=O)C(C)Oc1ccc(-c2ccc(C3COC(c4ccccc4Cl)=N3)cc2)cc1Cl (stereo not drawn) [Example 113] | 4.51 | – | – | –
40 | CC(C#N)Oc1ccc(-c2ccc(C3COC(c4c(F)cccc4F)=N3)cc2)cc1Cl (stereo not drawn) [Example 95] | 4.06 | – | – | –
41 | CC(=O)C(C)(C)Oc1ccc(-c2ccc(C3COC(c4c(F)cccc4F)=N3)cc2)cc1Cl (stereo not drawn) [Example 153] | 4.61 | – | – | –
42 | CCON=C(C)C(C)Oc1ccc(-c2ccc(C3COC(c4ccccc4Cl)=N3)cc2)cc1 (single isomer, unassigned) [Example 85] | 5.4 | – | – | –
43 | CC(=NOC(C)C)C(C)Oc1ccc(-c2ccc(C3COC(c4ccccc4Cl)=N3)cc2)cc1 (stereo not drawn) [Example 136] | – | 5.88 | 6.02 | –
44 | CC(COc1ccc(-c2ccc(C3COC(c4ccccc4Cl)=N3)cc2)cc1)=NOCc1ccccc1 (stereo not drawn) [Example 137] | – | 5.55 | 5.62 | –
45 | CON=C(COc1ccc(-c2ccc(C3COC(c4c(F)cccc4F)=N3)cc2)cc1)c1ccc(OC)cc1 (stereo not drawn) [Example 149] | – | 4.7 | 4.91 | –
46 | O=C(COc1ccc(-c2ccc(C3COC(c4c(F)cccc4Cl)=N3)cc2)cc1)c1ccccc1 (stereo not drawn) [Example 93] | 4.28 | – | – | –
